Reference: publication PMC7662523, “Evaluation of Polyhedral Oligomeric Silsesquioxane Porphyrin Derivatives on Photodynamic Therapy” (Molecules, 2020)

Tests used:
[1] = Singlet oxygen quantum yield, indirect method with DMA as 1O2 probe in DMF; format: physicochemical; details: for ΦΔ (1O2 quantum yield): DMA probe, irradiated at 515 nm, relative to TPP (ΦΔ = 0.62), n = 3
Experimental: The ^1O2 quantum yield (ΦΔ) of the POSSP compounds in dimethyl formamide (DMF) was indirectly determined using 9,10-dimethylanthracene (DMA) as ^1O2 probe. DMA reacts with ^1O2, undergoing a 1,4-cycloaddition that is detected as a decrease in the intensity of the DMA absorption band at 379 nm.
The ^1O2 quantum yields (ΦΔ) were determined through an indirect method using dimethylanthracence (DMA) as the singlet oxygen probe. Several solutions containing DMF were air saturated and prepared with DMA (50 μM) and the POSSPs or parent porphyrins (TPP, ATPP, TAPP and compound 6) (5 μM). These solutions were covered with aluminum foil to avoid any premature quenching. Quartz cuvettes (1 cm × 1 cm) were filled with 1 mL of the solution, placed in a spectrofluorophotometer (xenon lamp, Shimadzu RF-5301 PC) and irradiated at 515 nm for 600 s. The absorbance decay of DMA was monitored at 380 nm, which was corrected from light scattering by subtracting the spectra of POSSPs. The ΦΔ was calculated using Equation (2). Φ∆,S = Φ∆,R (mSample/mRerefence) (1−10^−absReference/1−10^−absSample)(2) where Φ∆,S is the singlet oxygen quantum yield of the sample and m is the slope of the plotted data relative to the area of the emission peak against the absorption of the reference.

[2] = system: MDA-MB-231 cells; experiment: In vitro phototoxicity, MTS assay after red light (630 nm) irradiation; format: cell-based, human; details: for phototoxicity (in words): highest concentration evaluated (0.5 µM), 630 nm light; for reduction in cell proliferation: 0.5 µM, 48 h incubation, 630 nm 24.5 mW/cm2 20 min
Experimental: (§1) The phototoxicities of ATPP, TAPP, compound 6 and POSSPs 1–5 were tested by using the MTS assay. For this study, MDA-MB-231 cells were seeded in a 96-well plate at a density of 5 × 10^3 cells per well in 100 µL of complete media and incubated at 37 °C in 5% CO2 atmosphere for 24 h. After removing the cell culture medium, POSSPs 1–5 at different concentrations (0.01–0.5 µM) were prepared in cell media from a stock solution in DMSO with a final volume of the organic solvent not larger than 1% vol. After 48 h of incubation in the presence of POSSPs, the culture media was removed, and the cells were washed twice with phosphate buffer solution. MDA-MB-231 cells were illuminated with the red light (630 nm) at a fluence rate of 24.5 mW/cm^2 for 20 min. Control experiments were maintained in the same conditions, but in the dark for the same interval of time. After irradiation, the media was replaced by fresh media and the cells were allowed to grow for an additional 24 h. The cyto- and phototoxicities of compound 6 and POSSPs 4 and 5 were also evaluated following the above described protocol, but using concentrations ranging 0.01–100 µM.
To quantify the phototoxic or dark toxicity effects of the experiments above described, the treated MDA-MB-231 cells were subjected to cell viability assay using the CellTiter 96® Aqueous solution assay. To perform the assay, the cell media was removed, and the cells were washed once with phosphate buffer solution. Fresh media (100 µL) together with 20 µL of CellTiter 96® was added into each well and incubated for 2–3 h at 37 °C in 5% CO2 atmosphere. Cell viability (%) was calculated as follows: viability = (Asample/Acontrol) × 100%, where Asample and Acontrol denote absorbance values of the sample and control wells measured at 490 nm, respectively. The results are reported as the average ± SD of three experiments. The IC50 values were determined using GraphPad Prism (v8.1.2 for macOS, La Jolla California, CA, USA) fitting the viability data to a sigmoidal curve mathematical model.

[3] = system: MDA-MB-231 cells; experiment: Cell internalization by flow cytometry (percentage of positive cells); format: cell-based, human; details: 0.5 µM, 24 h
Experimental: Six-well plates were prepared with 1 × 10^5 MDA-MB-231 cells per well in complete RPMI media (2 mL) and incubated at 37 °C in 5% CO2 for 48 h. The media was removed from each well and media solutions of control porphyrin (ATPP) and POSSPs 1–5 (2 mL, 0.5 µM) were added to the wells. The cells were incubated at 37 °C in 5% CO2 atmosphere for 24 h. The cell media was removed from the wells, and the cells were washed with phosphate buffer solution two times. The cells were incubated for 3–5 min in the presence of trypsin (500 µL). Cells were removed and transferred to a centrifuge tube. Media (500 µL) was added to each well to remove any remaining cells and mixed with the previous solution. The cell pellet was obtained after centrifugation (2.5k RPM, 10 min). The supernatant was discarded, and phosphate buffer solution (500 µL) was added to each tube. The cell pellet was mixed and transferred to flow cytometry tubes. The cell internalization of POSSP compounds was measured as the percentage of positive cells using a flow cytometer (BD LSRFortessa).

[4] = Partition coefficient (log POW) from n-butanol/water measurement; format: physicochemical; details: n-butanol/water measured at 25 °C, converted with calibration equation
Experimental: The log POW values of the POSSPs and controls were first measured in an n-butanol/water mixture, and then correlated with corresponding values in n-octanol/water using a calibration curve reported in the literature. Distilled water and butanol were thoroughly mixed for 24 h at 25 °C to achieve solvent saturation in both phases. Then, the porphyrin derivatives were added to the mixture and the phases separated through a separatory funnel. The UV–Vis absorbance of the compounds in water and n-butanol was recorded at 420 nm. logPBW = log[(Ab/Aw)(Vw/Vb)](3) where Ab is the absorbance of n-butanol phase; AW is the absorbance of water phase; VW is the volume of water; and Vb is the volume of n-butanol. The partition coefficient of porphyrin derivatives in n-butanol/water was obtained using Equation (3). The log POW values were calculated using Equation (4). logPOW = −0.54 + 1.55 log(PBW)(4)

[5] = Fluorescence quantum yield, comparative method relative to TPP; format: physicochemical; details: air-saturated, excitation 520 nm, relative to TPP in benzene, n = 3
Experimental: The fluorescence quantum yields (ΦF) were determined to indirectly characterize the efficiency with which the POSSP compounds undergo intersystem crossing (ISC) from the excited state to the triplet state, an essential step in ROS generation. […] In the case of POSSPs 4 and 5, no differences in the ΦF values were observed.
The fluorescence quantum yields for air-saturated solutions (ΦF) in THF (POSSPs 1–3) or DMSO (POSSPs 4 and 5) were determined using the comparative method. TPP was used as a reference with a fluorescence quantum yield of 0.12 in benzene. The POSSPs concentrations ranged from 0.1 to 10 µM (THF) for POSSPs 1–3 and from 3 to 15 µM (DMSO) for POSSPs 4 and 5. The excitation wavelength was 520 nm and the excitation and emission slit width were 2 nm. The fluorescence quantum yields were measured according to the comparative method described by Equation (1).

[6] = system: MDA-MB-231 cells; experiment: In vitro cytotoxicity in the absence of light, MTS assay; format: cell-based, human; details: concentrations 0.01–100 µM, Figure S7
Experimental: as §1, with “MDA-MB-231 cells were illuminated with the red light (630 nm) at a fluence rate of 24.5 mW/cm^2 for 20 min. Control experiments were maintained in the same conditions, but in the dark for the same interval of time. After irradiation, the media was replaced by fresh media and the cells were allowed to grow for an additional 24 h.” left out
To quantify the phototoxic or dark toxicity effects of the experiments above described, the treated MDA-MB-231 cells were subjected to cell viability assay using the CellTiter 96® Aqueous solution assay. […] Cell viability (%) was calculated as follows: viability = (Asample/Acontrol) × 100%, where Asample and Acontrol denote absorbance values of the sample and control wells measured at 490 nm, respectively. […] The IC50 values were determined using GraphPad Prism (v8.1.2 for macOS, La Jolla California, CA, USA) fitting the viability data to a sigmoidal curve mathematical model.

[7] = parameters: method as in PMID 10911728; details: in benzene; cited from earlier work
[8] = reference value used for calculation; cited from earlier work

Nc1ccc(-c2c3nc(c(-c4ccccc4)c4ccc([nH]4)c(-c4ccccc4)c4nc(c(-c5ccccc5)c5ccc2[nH]5)C=C4)C=C3)cc1 [ATPP, 5-(4-aminophenyl)-10,15,20-(triphenyl)porphyrin, reference compound]
ΦΔ value (in words) ([1]; Table S1): low ΦΔ value
phototoxicity (in words) [2]: minimal PDT effect
internalization in cells (in words) [3]: high internalization

CC(C)C[Si]12O[Si]3(CCCNC(=O)Nc4ccc(-c5c6nc(c(-c7ccccc7)c7ccc([nH]7)c(-c7ccccc7)c7nc(c(-c8ccccc8)c8ccc5[nH]8)C=C7)C=C6)cc4)O[Si]4(CC(C)C)O[Si](CC(C)C)(O1)O[Si]1(CC(C)C)O[Si](CC(C)C)(O2)O[Si](CC(C)C)(O3)O[Si](CC(C)C)(O4)O1 [POSSP 1]
ΦΔ (1O2 quantum yield) [1]: 0.82 ± 0.01
log POW (in words) [4]: positive values
reduction in cell proliferation [2]: 43 ± 4%
ΦF (fluorescence quantum yield) ([5]; in THF): 0.14 ± 0.01

O=C(NCCC[Si]12O[Si]3(c4ccccc4)O[Si]4(c5ccccc5)O[Si](c5ccccc5)(O1)O[Si]1(c5ccccc5)O[Si](c5ccccc5)(O2)O[Si](c2ccccc2)(O3)O[Si](c2ccccc2)(O4)O1)Nc1ccc(-c2c3nc(c(-c4ccccc4)c4ccc([nH]4)c(-c4ccccc4)c4nc(c(-c5ccccc5)c5ccc2[nH]5)C=C4)C=C3)cc1 [POSSP 2]
ΦΔ (1O2 quantum yield) [1]: 0.60 ± 0.02
log POW (in words) [4]: positive values
phototoxicity (in words) [2]: did not show significant phototoxicity
internalization in cells (in words) [3]: internalized in a much higher percentage than the other POSSPs
ΦF (fluorescence quantum yield) ([5]; in THF): 0.13 ± 0.01

NCCC[Si]12O[Si]3(CCCN)O[Si]4(CCCN)O[Si](CCCN)(O1)O[Si]1(CCCN)O[Si](CCCN)(O2)O[Si](CCCN)(O3)O[Si](CCCNC(=O)c2ccc(-c3c5nc(c(-c6ccccc6)c6ccc([nH]6)c(-c6ccccc6)c6nc(c(-c7ccccc7)c7ccc3[nH]7)C=C6)C=C5)cc2)(O4)O1 [POSSP 4]
ΦΔ (1O2 quantum yield) [1]: 0.70 ± 0.01
log POW (in words) [4]: Negative log POW values
reduction in cell proliferation [2]: 11 ± 2%
ΦF (fluorescence quantum yield) ([5]; in DMSO): 0.15 ± 0.01

C[N+](C)(C)CCC[Si]12O[Si]3(CCCNC(=O)c4ccc(-c5c6nc(c(-c7ccccc7)c7ccc([nH]7)c(-c7ccccc7)c7nc(c(-c8ccccc8)c8ccc5[nH]8)C=C7)C=C6)cc4)O[Si]4(CCC[N+](C)(C)C)O[Si](CCC[N+](C)(C)C)(O1)O[Si]1(CCC[N+](C)(C)C)O[Si](CCC[N+](C)(C)C)(O2)O[Si](CCC[N+](C)(C)C)(O3)O[Si](CCC[N+](C)(C)C)(O4)O1 [POSSP 5]
ΦΔ (1O2 quantum yield) [1]: 0.66 ± 0.01
log POW (in words) [4]: Negative log POW values
cytotoxicity at higher concentrations (in words) [6]: structural properties of the molecule also play a role in its toxicity
phototoxicity (in words) [2]: did not show significant phototoxicity
ΦF (fluorescence quantum yield) ([5]; in DMSO): 0.10 ± 0.01

C1=Cc2nc1c(-c1ccccc1)c1nc(c(-c3ccccc3)c3ccc([nH]3)c(-c3ccccc3)c3ccc([nH]3)c2-c2ccccc2)C=C1 [TPP, 5,10,15,20-(tetraphenyl)porphyrin]
fluorescence quantum yield of reference [7]: 0.12
ΦΔ (1O2 quantum yield) of reference [8]: 0.62
